# Measured values from ChEMBL document CHEMBL4765292, “Flexible diaminodihydrotriazine inhibitors of Plasmodium falciparum dihydrofolate reductase: Binding strengths, modes of binding and their antimalarial activities” (Eur J Med Chem, 2020).
# Assays:
# [1] = system: DHFR (human against Plasmodium falciparum DHFR double mutant); test: Selectivity index, ratio of Ki for human DHFR expressed in Escherichia coli BL21 to Ki for Plasmodium falciparum DHFR double mutant expressed in Escherichia coli BL21; type: toxicity; conditions: read-out: Ratio Ki
# [2] = Therapeutic index, ratio of IC50 for African green monkey Vero cells to IC50 for Plasmodium falciparum TM4/8.2; type: toxicity; conditions: against Plasmodium falciparum TM4/8.2, read-out: Ratio IC50
# [3] = system: DHFR (human against Plasmodium falciparum DHFR N51I/C59R/S108N/I164L mutant); test: Selectivity index, ratio of Ki for human DHFR expressed in Escherichia coli BL21 to Ki for Plasmodium falciparum DHFR N51I/C59R/S108N/I164L mutant expressed in Escherichia coli BL21; type: toxicity; conditions: read-out: Ratio Ki
# [4] = Therapeutic index, ratio of IC50 for African green monkey Vero cells to IC50 for Plasmodium falciparum V1/S harboring DHFR N51I/C59R/S108N/I164L mutant; type: toxicity; conditions: read-out: Ratio IC50
# [5] = Therapeutic index, ratio of IC50 for African green monkey Vero cells to IC50 for Plasmodium falciparum K1CB1 harboring DHFR […] mutant; type: toxicity; conditions: read-out: Ratio IC50
# [6] = Inhibition of Plasmodium falciparum DHFR C59R/S108N/I164L mutant expressed in Escherichia coli BL21 using DHF as substrate by spectrophotometric analysis
# Plasmodium falciparum [7] = test: Antimalarial activity against Plasmodium falciparum TM4/8.2 infected in human erythrocytes assessed as reduction in [3H]-hypoxanthine incorporation pretreated for 20 hrs followed by [3H]-hypoxanthine addition measured after 20 hrs by radioactivity method; type: functional, organism-based
# [8] = system: DHFR (human against Plasmodium falciparum DHFR); test: Selectivity index, ratio of Ki for human DHFR expressed in Escherichia coli BL21 to Ki for Plasmodium falciparum DHFR expressed in Escherichia coli BL21; type: toxicity; conditions: read-out: Ratio Ki
# [9] = Inhibition of Plasmodium falciparum DHFR […] mutant expressed in Escherichia coli BL21 using DHF as substrate by spectrophotometric analysis
# [10] = Inhibition of Plasmodium falciparum DHFR expressed in Escherichia coli BL21 using DHF as substrate by spectrophotometric analysis
# [11] = Inhibition of Plasmodium falciparum DHFR N51I/C59R/S108N/I164L mutant expressed in Escherichia coli BL21 using DHF as substrate by spectrophotometric analysis
# Plasmodium falciparum [12] = test: Antimalarial activity against Plasmodium falciparum CsI-2 harboring DHFR C59R/S108N/I164L mutant infected in human erythrocytes assessed as reduction in [3H]-hypoxanthine incorporation pretreated for 20 hrs followed by [3H]-hypoxanthine addition measured after 20 hrs by radioactivity method; type: functional, organism-based; conditions: CsI-2, Erythrocyte
# Plasmodium falciparum [13] = test: Antimalarial activity against Plasmodium falciparum T9/94 RC17 harboring DHFR A16V/S108T mutant infected in human erythrocytes assessed as reduction in [3H]-hypoxanthine incorporation pretreated for 20 hrs followed by [3H]-hypoxanthine addition measured after 20 hrs by radioactivity method; type: functional, organism-based; conditions: T9/94 RC17, Erythrocyte
# [14] = Inhibition of Plasmodium falciparum DHFR A16V/S108T mutant expressed in Escherichia coli BL21 using DHF as substrate by spectrophotometric analysis
# Plasmodium falciparum [15] = test: Antimalarial activity against Plasmodium falciparum V1/S harboring DHFR N51I/C59R/S108N/I164L mutant infected in human erythrocytes assessed as reduction in [3H]-hypoxanthine incorporation pretreated for 20 hrs followed by [3H]-hypoxanthine addition measured after 20 hrs by radioactivity method; type: functional, organism-based; conditions: Erythrocyte
# Plasmodium falciparum [16] = test: Antimalarial activity against Plasmodium falciparum K1CB1 harboring DHFR […] mutant infected in human erythrocytes assessed as reduction in [3H]-hypoxanthine incorporation pretreated for 20 hrs followed by [3H]-hypoxanthine addition measured after 20 hrs by radioactivity method; type: functional, organism-based; conditions: K1CB1, Erythrocyte
# [17] = Inhibition of Plasmodium falciparum DHFR N51I/C59R/S108N mutant expressed in Escherichia coli BL21 using DHF as substrate by spectrophotometric analysis
# Vero = test: Cytotoxicity against African green monkey Vero cells assessed as reduction in cell viability incubated for 72 hrs by SRB assay; type: cell-based; conditions: Chlorocebus sabaeus
# Plasmodium falciparum [18] = test: Antimalarial activity against Plasmodium falciparum W2 harboring DHFR N51I/C59R/S108N mutant infected in human erythrocytes assessed as reduction in [3H]-hypoxanthine incorporation pretreated for 20 hrs followed by [3H]-hypoxanthine addition measured after 20 hrs by radioactivity method; type: functional, organism-based; conditions: W2, Erythrocyte
# [19] = Inhibition of Plasmodium falciparum DHFR using DHF as substrate by spectrophotometric analysis
compound,measurement,setting,value
CC1(C)N=C(N)N=C(N)N1OCCCSc1ccccc1Cl,selectivity ratio,[1],19
same,selectivity ratio,[2],30400
same,selectivity ratio,[3],21
same,selectivity ratio,[4],332
same,selectivity ratio,[5],4060
same,Ki,[6],0.9 nM
same,IC50,Plasmodium falciparum [7],0.48 nM
same,selectivity ratio,[8],35
same,Ki,[9],1.1 nM
same,Ki,[10],0.6 nM
same,Ki,[11],1 nM
same,IC50,Plasmodium falciparum [12],4.4 nM
same,IC50,Plasmodium falciparum [13],0.73 nM
same,Ki,[14],1.9 nM
same,IC50,Plasmodium falciparum [15],44 nM
same,IC50,Plasmodium falciparum [16],3.6 nM
same,Ki,[17],0.7 nM
same,IC50,Vero,14600 nM
same,IC50,Plasmodium falciparum [18],3.3 nM
CC1(C)N=C(N)N=C(N)N1OCCCOc1cc(Cl)c(Cl)cc1Cl,selectivity ratio,[1],24
same,selectivity ratio,[2],> 1750
same,selectivity ratio,[3],8
same,selectivity ratio,[4],> 56
same,selectivity ratio,[5],> 435
same,Ki,[6],0.4 nM
same,IC50,Plasmodium falciparum [7],0.57 nM
same,Ki,[19],0.5 nM
same,selectivity ratio,[8],29
same,Ki,[9],0.6 nM
same,Ki,[11],1.9 nM
same,IC50,Plasmodium falciparum [12],3.8 nM
same,IC50,Plasmodium falciparum [13],0.34 nM
same,IC50,Plasmodium falciparum [15],18 nM
same,IC50,Plasmodium falciparum [16],2.3 nM
same,Ki,[17],1.1 nM
same,IC50,Vero,> 1000 nM
same,IC50,Plasmodium falciparum [18],4.2 nM
CC1(C)N=C(N)N=C(N)N1OCCCOc1ccccc1,selectivity ratio,[1],36
same,selectivity ratio,[2],90000
same,selectivity ratio,[3],19
same,selectivity ratio,[4],628
same,selectivity ratio,[5],6170
same,Ki,[6],1.4 nM
same,IC50,Plasmodium falciparum [7],0.37 nM
same,selectivity ratio,[8],52
same,Ki,[9],1 nM
same,Ki,[10],0.7 nM
same,Ki,[11],1.9 nM
same,IC50,Plasmodium falciparum [12],32 nM
same,IC50,Plasmodium falciparum [13],0.59 nM
same,Ki,[14],1.5 nM
same,IC50,Plasmodium falciparum [15],53 nM
same,IC50,Plasmodium falciparum [16],5.4 nM
same,Ki,[17],0.8 nM
same,IC50,Vero,33300 nM
same,IC50,Plasmodium falciparum [18],5.9 nM
NC1=NC(c2ccccc2)N(OCCCOc2cc(Cl)c(Cl)cc2Cl)C(N)=N1 (stereo unspecified),selectivity ratio,[1],76
same,selectivity ratio,[2],4920
same,selectivity ratio,[3],207
same,selectivity ratio,[4],52
same,selectivity ratio,[5],570
same,Ki,[6],0.3 nM
same,IC50,Plasmodium falciparum [7],5.1 nM
same,Ki,[19],0.6 nM
same,selectivity ratio,[8],242
same,Ki,[9],1.9 nM
same,Ki,[11],0.7 nM
same,IC50,Plasmodium falciparum [12],340 nM
same,IC50,Plasmodium falciparum [13],3.2 nM
same,IC50,Plasmodium falciparum [15],480 nM
same,IC50,Plasmodium falciparum [16],44 nM
same,Ki,[17],1.6 nM
same,IC50,Vero,25100 nM
same,IC50,Plasmodium falciparum [18],60 nM
CC1(C)N=C(N)N=C(N)N1OCCCOc1cccc(Cl)c1Cl,selectivity ratio,[1],24
same,selectivity ratio,[2],27700
same,selectivity ratio,[3],21
same,selectivity ratio,[4],1870
same,selectivity ratio,[5],5110
same,Ki,[6],1.4 nM
same,IC50,Plasmodium falciparum [7],0.35 nM
same,selectivity ratio,[8],39
same,Ki,[9],1 nM
same,Ki,[10],0.6 nM
same,Ki,[11],1.1 nM
same,IC50,Plasmodium falciparum [12],3.9 nM
same,IC50,Plasmodium falciparum [13],0.21 nM
same,Ki,[14],1.3 nM
same,IC50,Plasmodium falciparum [15],5.2 nM
same,IC50,Plasmodium falciparum [16],1.9 nM
same,Ki,[17],0.7 nM
same,IC50,Vero,9710 nM
same,IC50,Plasmodium falciparum [18],0.82 nM
CC1(C)N=C(N)N=C(N)N1OCCCNc1ccc(Cl)c(Cl)c1,selectivity ratio,[1],61
same,selectivity ratio,[2],> 11100
same,selectivity ratio,[3],9
same,selectivity ratio,[4],> 68
same,selectivity ratio,[5],> 11100
same,Ki,[6],1.4 nM
same,IC50,Plasmodium falciparum [7],4.5 nM
same,selectivity ratio,[8],40
same,Ki,[9],0.8 nM
same,Ki,[10],1.2 nM
same,Ki,[11],5.1 nM
same,IC50,Plasmodium falciparum [12],390 nM
same,IC50,Plasmodium falciparum [13],17 nM
same,Ki,[14],3.7 nM
same,IC50,Plasmodium falciparum [15],740 nM
same,IC50,Plasmodium falciparum [16],45 nM
same,Ki,[17],0.9 nM
same,IC50,Vero,> 50000 nM
same,IC50,Plasmodium falciparum [18],58 nM
CC1N=C(N)N=C(N)N1OCCCOc1cc(Cl)c(Cl)cc1Cl (stereo unspecified),selectivity ratio,[1],47
same,selectivity ratio,[2],20000
same,selectivity ratio,[3],40
same,selectivity ratio,[4],153
same,selectivity ratio,[5],2420
same,Ki,[6],0.5 nM
same,IC50,Plasmodium falciparum [7],2.3 nM
same,Ki,[19],0.3 nM
same,selectivity ratio,[8],79
same,Ki,[9],0.5 nM
same,Ki,[11],0.6 nM
same,IC50,Plasmodium falciparum [12],48 nM
same,IC50,Plasmodium falciparum [13],0.32 nM
same,IC50,Plasmodium falciparum [15],300 nM
same,IC50,Plasmodium falciparum [16],19 nM
same,Ki,[17],0.4 nM
same,IC50,Vero,46000 nM
same,IC50,Plasmodium falciparum [18],35 nM
CC1(C)N=C(N)N=C(N)N1OCCCSc1ccc(Cl)cc1,selectivity ratio,[1],26
same,selectivity ratio,[2],30200
same,selectivity ratio,[3],30
same,selectivity ratio,[4],70
same,selectivity ratio,[5],2970
same,Ki,[6],0.9 nM
same,IC50,Plasmodium falciparum [7],0.6 nM
same,selectivity ratio,[8],40
same,Ki,[9],0.9 nM
same,Ki,[10],0.6 nM
same,Ki,[11],0.8 nM
same,IC50,Plasmodium falciparum [12],37 nM
same,IC50,Plasmodium falciparum [13],1.8 nM
same,Ki,[14],3.1 nM
same,IC50,Plasmodium falciparum [15],260 nM
same,IC50,Plasmodium falciparum [16],6.1 nM
same,Ki,[17],0.7 nM
same,IC50,Vero,18100 nM
same,IC50,Plasmodium falciparum [18],5.4 nM
CC1(C)N=C(N)N=C(N)N1OCCCCc1ccccc1,selectivity ratio,[1],60
same,selectivity ratio,[2],821
same,selectivity ratio,[3],11
same,selectivity ratio,[4],46
same,selectivity ratio,[5],874
same,Ki,[6],2.2 nM
same,IC50,Plasmodium falciparum [7],33 nM
same,selectivity ratio,[8],139
same,Ki,[9],0.7 nM
same,Ki,[10],0.3 nM
same,Ki,[11],3.7 nM
same,IC50,Plasmodium falciparum [12],46 nM
same,IC50,Plasmodium falciparum [13],3.7 nM
same,Ki,[14],2 nM
same,IC50,Plasmodium falciparum [15],590 nM
same,IC50,Plasmodium falciparum [16],31 nM
same,Ki,[17],0.7 nM
same,IC50,Vero,27100 nM
same,IC50,Plasmodium falciparum [18],44 nM
CC1(C)NC(N)=NC(=N)N1OCCCSc1ccccc1,selectivity ratio,[1],36
same,selectivity ratio,[2],123000
same,selectivity ratio,[3],58
same,selectivity ratio,[4],997
same,selectivity ratio,[5],13300
same,Ki,[6],0.4 nM
same,IC50,Plasmodium falciparum [7],0.52 nM
same,selectivity ratio,[8],58
same,Ki,[9],0.8 nM
same,Ki,[10],0.5 nM
same,IC50,Plasmodium falciparum [12],39 nM
same,IC50,Plasmodium falciparum [13],0.58 nM
same,Ki,[14],1 nM
same,IC50,Plasmodium falciparum [15],64 nM
same,IC50,Plasmodium falciparum [16],4.8 nM
same,Ki,[17],0.3 nM
same,IC50,Vero,63800 nM
same,IC50,Plasmodium falciparum [18],9.9 nM
